This note sets out measurements from ChEMBL document CHEMBL5257116, “Design, synthesis, and biological evaluation of acyl sulfonamide derivatives with spiro cycles as NaV1.7 inhibitors for antinociception” (Bioorg Med Chem, 2023).

As a reminder, the inhibition is the drop in the measured response relative to a control, in per cent. As usually defined, the IC50 is the concentration that inhibits the measured activity by half. Higher therefore signals weaker potency in that assay.

Activity calls are given as the source filed them. No cut-off for these calls is given here.

In series [1] the target is T1, Sodium channel protein type 9 subunit alpha (Homo sapiens, UniProt Q15858). Kind of series: Inhibition of human Nav1.7 expressed in HEK293 cells at 10 uM measured for 48 hrs by whole-cell patch clamp electrophysiology assay. The class given is cell-based.
Target sequence in this assay (Q15858 whole entry, looked up): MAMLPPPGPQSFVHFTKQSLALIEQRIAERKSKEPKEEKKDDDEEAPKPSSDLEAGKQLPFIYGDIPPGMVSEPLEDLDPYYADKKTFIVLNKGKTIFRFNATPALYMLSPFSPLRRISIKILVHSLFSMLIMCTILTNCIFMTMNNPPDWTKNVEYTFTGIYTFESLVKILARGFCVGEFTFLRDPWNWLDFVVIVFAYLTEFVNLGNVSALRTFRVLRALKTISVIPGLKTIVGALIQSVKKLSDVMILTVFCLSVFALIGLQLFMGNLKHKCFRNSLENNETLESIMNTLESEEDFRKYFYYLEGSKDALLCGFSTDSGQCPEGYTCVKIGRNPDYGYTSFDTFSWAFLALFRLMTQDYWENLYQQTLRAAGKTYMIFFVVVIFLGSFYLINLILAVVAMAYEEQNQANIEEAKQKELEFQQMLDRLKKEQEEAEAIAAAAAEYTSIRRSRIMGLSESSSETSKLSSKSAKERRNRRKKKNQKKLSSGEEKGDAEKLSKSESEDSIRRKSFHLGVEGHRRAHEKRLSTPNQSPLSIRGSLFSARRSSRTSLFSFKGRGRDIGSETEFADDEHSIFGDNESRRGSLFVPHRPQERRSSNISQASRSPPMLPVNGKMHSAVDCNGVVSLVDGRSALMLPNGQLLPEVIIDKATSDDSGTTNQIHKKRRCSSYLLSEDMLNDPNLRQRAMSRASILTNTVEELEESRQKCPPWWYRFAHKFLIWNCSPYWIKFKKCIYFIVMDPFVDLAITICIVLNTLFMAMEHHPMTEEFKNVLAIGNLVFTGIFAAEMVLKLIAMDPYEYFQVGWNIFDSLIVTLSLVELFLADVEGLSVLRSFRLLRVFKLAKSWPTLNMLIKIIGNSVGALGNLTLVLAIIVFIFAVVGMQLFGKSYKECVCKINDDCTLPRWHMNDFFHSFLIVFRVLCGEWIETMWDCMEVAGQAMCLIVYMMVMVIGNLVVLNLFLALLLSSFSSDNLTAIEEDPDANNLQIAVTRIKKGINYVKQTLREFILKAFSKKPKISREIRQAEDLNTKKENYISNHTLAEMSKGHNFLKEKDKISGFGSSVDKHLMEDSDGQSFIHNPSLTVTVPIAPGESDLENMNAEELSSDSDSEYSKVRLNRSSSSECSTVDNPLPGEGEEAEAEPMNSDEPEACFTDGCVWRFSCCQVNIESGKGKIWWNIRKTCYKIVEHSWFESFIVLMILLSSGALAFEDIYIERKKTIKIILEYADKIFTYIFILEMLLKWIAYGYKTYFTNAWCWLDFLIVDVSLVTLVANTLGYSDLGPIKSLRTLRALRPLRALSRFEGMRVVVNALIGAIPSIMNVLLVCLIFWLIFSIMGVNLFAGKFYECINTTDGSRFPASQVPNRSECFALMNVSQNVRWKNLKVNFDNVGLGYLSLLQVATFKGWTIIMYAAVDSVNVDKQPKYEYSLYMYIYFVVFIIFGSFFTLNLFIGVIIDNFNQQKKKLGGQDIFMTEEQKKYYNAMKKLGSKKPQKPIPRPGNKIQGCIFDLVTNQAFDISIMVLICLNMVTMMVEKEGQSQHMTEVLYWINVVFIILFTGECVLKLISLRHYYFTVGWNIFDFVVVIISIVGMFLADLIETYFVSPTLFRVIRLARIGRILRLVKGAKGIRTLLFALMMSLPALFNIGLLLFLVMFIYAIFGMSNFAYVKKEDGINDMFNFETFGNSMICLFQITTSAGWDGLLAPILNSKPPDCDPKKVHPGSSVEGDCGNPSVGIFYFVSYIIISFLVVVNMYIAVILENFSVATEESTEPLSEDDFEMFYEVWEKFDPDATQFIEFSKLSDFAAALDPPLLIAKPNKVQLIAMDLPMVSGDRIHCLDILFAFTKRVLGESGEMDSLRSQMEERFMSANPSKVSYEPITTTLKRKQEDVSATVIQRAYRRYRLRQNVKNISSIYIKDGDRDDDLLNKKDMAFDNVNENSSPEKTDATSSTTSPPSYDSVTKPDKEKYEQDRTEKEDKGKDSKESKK
For series [2], the target named is T1, Sodium channel protein type 9 subunit alpha. Put plainly: Inhibition of Nav1.7 (unknown origin) by whole-cell patch clamp assay. (In general: The patch-clamp technique gives a direct electrical read-out from membranes.)
Target sequence in this assay (Q15858 whole entry): as the sequence (Q15858 whole entry, looked up) above
Series [3] has the same target. Kind of series: Inhibition of human Nav1.7 expressed in HEK293 cells at 1 uM measured for 48 hrs by whole-cell patch clamp electrophysiology assay. In kind it is cell-based.
Target sequence in this assay (Q15858 whole entry, looked up): as above
The target of series [4] is Sodium channel protein type 5 subunit alpha (Homo sapiens, UniProt Q14524). Put plainly: Inhibition of Nav1.5 (unknown origin) by whole-cell patch clamp assay.
Series [5] concerns the target Sodium channel protein type 4 subunit alpha (Homo sapiens, UniProt P35499). Kind of series: Inhibition of Nav1.4 (unknown origin) by whole-cell patch clamp assay.
Series [6] relates to Mus musculus. Kind of series: Antinociceptive activity in Kunming mouse at 10 mg/kg,ip measured for 1 to 4 hrs after administration by hot plate test. The class given is functional, organism-based. The settings on record: time 1-4 hrs. A general note: Hot-plate and tail-flick tests time the reaction to a heat stimulus.
Series [7] has as its system Mus musculus. Kind of series: Antinociceptive activity in Kunming mouse at 20 mg/kg,ip measured for 1 to 4 hrs after administration by hot plate test. In kind it is functional, organism-based. The settings on record: time 1-4 hrs.
Series [8] deals with Mus musculus. Kind of series: Antinociceptive activity in Kunming mouse at 40 mg/kg,ip measured for 1 to 4 hrs after administration by hot plate test. In kind it is functional, organism-based. The settings on record: time 1-4 hrs.
The species entered for another series is Homo sapiens. Kind of series: Selectivity ratio of IC50 for inhibition of Nav1.7 (unknown origin) to IC50 for inhibition of Nav1.4 (unknown origin).
Series [9] in a line: Sedative activity in Kunming mouse assessed as effect on spontaneous locomotor activity at 20 mg/kg,ip administrated for 2 hrs and measured for 30 mins by open field test. The class given is toxicity, organism-based. The settings on record: in vivo, 2.5 h.
Series [10] deals with Mus musculus. Kind of series: Antinociceptive activity in Kunming mouse assessed as inhibition of acetic acid-induced abdominal constrictions at 10 to 40 mg/kg,ip pre-administrated for 2 hrs followed by acetic acid induction and measured for 15 mins by writhing test. The class given is functional, organism-based. To be noted: dose 10-40 mg/kg, time 135.0 min. (In general: Writhing tests count abdominal constrictions after an irritant is injected.)

Sodium channel protein type 5 subunit alpha, sequence (Q14524 whole entry): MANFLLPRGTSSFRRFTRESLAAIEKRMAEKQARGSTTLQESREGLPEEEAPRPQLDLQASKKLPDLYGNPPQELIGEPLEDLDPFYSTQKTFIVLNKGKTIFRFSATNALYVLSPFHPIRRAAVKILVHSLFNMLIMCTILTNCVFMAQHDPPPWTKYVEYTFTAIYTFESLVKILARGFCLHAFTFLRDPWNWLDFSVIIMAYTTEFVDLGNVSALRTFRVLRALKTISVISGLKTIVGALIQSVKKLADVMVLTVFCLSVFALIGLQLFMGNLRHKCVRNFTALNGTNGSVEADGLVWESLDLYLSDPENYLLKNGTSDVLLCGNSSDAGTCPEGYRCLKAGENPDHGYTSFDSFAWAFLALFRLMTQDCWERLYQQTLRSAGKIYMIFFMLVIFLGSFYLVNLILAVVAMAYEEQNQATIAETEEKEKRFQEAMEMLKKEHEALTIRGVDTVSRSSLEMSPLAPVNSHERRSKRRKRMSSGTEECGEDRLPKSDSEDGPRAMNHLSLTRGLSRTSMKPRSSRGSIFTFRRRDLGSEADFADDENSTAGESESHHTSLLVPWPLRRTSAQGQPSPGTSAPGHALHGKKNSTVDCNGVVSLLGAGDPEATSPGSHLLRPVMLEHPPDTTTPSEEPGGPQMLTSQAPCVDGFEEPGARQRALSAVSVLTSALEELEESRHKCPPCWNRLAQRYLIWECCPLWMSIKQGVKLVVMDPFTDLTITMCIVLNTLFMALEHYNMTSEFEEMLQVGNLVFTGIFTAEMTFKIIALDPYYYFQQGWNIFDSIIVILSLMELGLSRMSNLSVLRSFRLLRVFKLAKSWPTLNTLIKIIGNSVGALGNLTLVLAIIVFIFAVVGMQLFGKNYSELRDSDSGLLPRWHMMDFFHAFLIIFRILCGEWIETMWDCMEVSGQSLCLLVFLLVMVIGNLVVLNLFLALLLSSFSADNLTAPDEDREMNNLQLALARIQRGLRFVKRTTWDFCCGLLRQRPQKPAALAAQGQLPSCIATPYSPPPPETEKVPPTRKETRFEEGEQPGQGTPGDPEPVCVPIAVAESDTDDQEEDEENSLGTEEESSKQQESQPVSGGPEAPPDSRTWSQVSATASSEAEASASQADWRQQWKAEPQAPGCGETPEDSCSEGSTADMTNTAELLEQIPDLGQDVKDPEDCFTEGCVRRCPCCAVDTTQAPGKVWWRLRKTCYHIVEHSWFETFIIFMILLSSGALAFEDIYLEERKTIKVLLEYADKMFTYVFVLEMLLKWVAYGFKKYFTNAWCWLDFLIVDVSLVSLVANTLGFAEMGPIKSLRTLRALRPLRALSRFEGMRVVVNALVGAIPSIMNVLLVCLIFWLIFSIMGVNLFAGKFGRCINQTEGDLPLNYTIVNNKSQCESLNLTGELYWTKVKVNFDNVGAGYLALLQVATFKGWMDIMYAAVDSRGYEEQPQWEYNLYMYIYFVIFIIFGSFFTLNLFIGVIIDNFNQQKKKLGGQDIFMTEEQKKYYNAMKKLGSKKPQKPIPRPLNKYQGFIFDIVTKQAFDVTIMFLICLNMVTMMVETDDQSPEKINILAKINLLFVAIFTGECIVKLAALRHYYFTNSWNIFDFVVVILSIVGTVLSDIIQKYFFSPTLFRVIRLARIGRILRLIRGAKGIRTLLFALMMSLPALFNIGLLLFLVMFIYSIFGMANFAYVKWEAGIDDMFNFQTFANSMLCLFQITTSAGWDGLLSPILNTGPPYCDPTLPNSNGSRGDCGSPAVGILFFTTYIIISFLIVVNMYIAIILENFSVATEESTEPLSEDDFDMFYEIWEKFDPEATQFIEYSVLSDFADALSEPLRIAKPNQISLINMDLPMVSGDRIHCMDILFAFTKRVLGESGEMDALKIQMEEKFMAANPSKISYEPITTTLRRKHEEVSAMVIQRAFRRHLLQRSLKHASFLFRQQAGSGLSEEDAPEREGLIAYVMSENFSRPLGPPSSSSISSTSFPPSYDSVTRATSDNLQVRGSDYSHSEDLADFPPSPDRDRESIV

Turning to `O=C(NS(=O)(=O)C1CC1)c1cc(F)c(OCCC2CCC3(CCN(Cc4ccccc4)CC3)C2)cc1F` (stereo not given), the inhibition in [1] stood at 99.7%. In [2], this compound yielded an IC50 of 1150 nM.
Turning to `O=C(NS(=O)(=O)C1CC1)c1ccc(OC2CCC3(CCNCC3)C2)cc1` (stereo not given), the inhibition in series [1] is 71.4%.
The same measure, in the same setting: the figure for `CCN1CCC2(CCC(CCOc3ccc(C(=O)NS(=O)(=O)C4CC4)cc3)C2)CC1` (stereo not given) is 24.2%.
Same read-out and setting: the value for `O=C(NS(=O)(=O)C1CC1)c1cc(C2CC2)c(OCCC2CCC3(CCN(Cc4ccccc4)CC3)C2)cc1F` (stereo not given) was 96.5%.
`Cc1cc(C(=O)NS(=O)(=O)C2CC2)c(F)cc1OCCC1CCC2(CCN(Cc3ccccc3)CC2)C1` (stereo not given): the inhibition in series [1] stood at 101%. In series [2], this compound yielded an IC50 of 1040 nM.
As for `O=C(NS(=O)(=O)C1CC1)c1ccc(OCCC2CCC3(CCN(Cc4ccccc4)CC3)C2)cc1` (stereo not given), in series [1], the inhibition came to 92%.
Regarding `O=C(NS(=O)(=O)C1CC1)c1cc(Cl)c(OCCC2CCC3(CCN(Cc4ccsc4)CC3)C2)cc1F` (stereo not given), the inhibition in [3] turned out to be 61.4%; in series [1] it was 95.9%. For the same compound, the IC50 in [4] turned out to be 54700 nM; in series [2], 840 nM.
Regarding `O=C(NS(=O)(=O)C1CC1)c1cc(Cl)c(OCCC2CCC3(CCN(Cc4ccccc4)CC3)C2)cc1F` (stereo not given), the inhibition in [3] worked out at 70.8%; in [1], 102%. The values for the IC50 in series [4], in series [5] and in series [2] were 46200 nM, 4880 nM and 460 nM, respectively. Besides, the outcome in the series with Mus musculus [6] and in the series on Mus musculus [8] was inactive. The outcome in the series with Mus musculus [7] was Active. In addition, in the series listed under Homo sapiens, the Ratio IC50 was determined as 10. Further, the Activity entry in series [9] is “Non-Toxic”; with Mus musculus [10] it was “Dose-Dependent Effect”.
As for `O=C(NS(=O)(=O)C1CC1)c1ccc(OCCC2CCC3(CCNCC3)C2)cc1` (stereo not given), in series [1], the inhibition was determined as 8.4%.
Still for that read-out and setting: the value for `O=C(NS(=O)(=O)C1CC1)c1ccc(OCC2CCC3(CCN(Cc4ccccc4)CC3)C2)cc1` (stereo not given) was 57.4%; that for `O=C(NS(=O)(=O)C1CC1)c1ccc(OC2CCC3(CCN(Cc4ccccc4)CC3)C2)cc1` (stereo not given) was 45.7%; that for `O=C(NS(=O)(=O)C1CC1)c1ccc(OC2CCC3(CC2)CCN(Cc2ccccc2)CC3)cc1` was 13.7%.
With `O=C(NS(=O)(=O)C1CC1)c1cc(Cl)c(OCCC2CCC3(CCN(Cc4cccc(C(F)(F)F)c4)CC3)C2)cc1F` (stereo not given), the inhibition turned out to be 16.1% in series [3] and 55.9% in [1].
Taken in the same sequence, the figures for `O=C(NS(=O)(=O)C1CC1)c1cc(Cl)c(OCCC2CCC3(CCN(Cc4cccc5ccccc45)CC3)C2)cc1F` (stereo not given) were 33.5% and 97.1%.
For `C[C@H](NCc1ccc(OCc2ccccc2F)cc1)C(N)=O` [RALFINAMIDE], the inhibition in series [3] was found to be 12.5%; in series [1] it was 30.9%. Besides, the outcome with Mus musculus [7] was Active. The same compound showed an IC50 in series [2] of 35200 nM.
Consider `CCN1CCC2(CCC(COc3ccc(C(=O)NS(=O)(=O)C4CC4)cc3)C2)CC1` (stereo not given), for which the inhibition in [1] was found to be 1.4%.
Take `O=C(NS(=O)(=O)C1CC1)c1cc(Cl)c(OCCC2CCC3(CCN(Cc4cc(Cl)cc(Cl)c4)CC3)C2)cc1F` (stereo not given): the inhibition in series [1] was 77.2%.
On to `COc1ccc(CN2CCC3(CCC(CCOc4cc(F)c(C(=O)NS(=O)(=O)C5CC5)cc4Cl)C3)CC2)cc1` (stereo not given), for which the inhibition came to 31.1% in series [3] and 89.3% in series [1].
Take `O=C(NS(=O)(=O)C1CC1)c1ccc(OC2CCC3(CCNCC3)CC2)cc1`: the inhibition in series [1] is 11.2%.
Take `CCc1ccc(CN2CCC3(CCC(CCOc4cc(F)c(C(=O)NS(=O)(=O)C5CC5)cc4Cl)C3)CC2)cc1` (stereo not given): the figures for the inhibition in series [3] and in [1] were 29.4% and 93.9%, respectively.
Take `O=C(NS(=O)(=O)C1CC1)c1cc(Cl)c(OCCC2(F)CCN(Cc3cc(Cl)cc(Cl)c3)CC2)cc1F`: the half-inhibitory concentration (IC50) is 58900 nM in series [4], 2700 nM in [5] and 1010 nM in series [2]. In addition, the inhibition in series [1] worked out at 89.6%. Further, in the series listed under Homo sapiens, the Ratio IC50 came to 3.
Turning to `CCN1CCC2(CC1)CC(Oc1ccc(C(=O)NS(=O)(=O)C3CC3)cc1)C2`, the inhibition in [1] was 14.3%.
Still for that read-out and setting: the figure for `O=C(NS(=O)(=O)C1CC1)c1ccc(OC2CC3(CCN(Cc4ccccc4)CC3)C2)cc1` is 21.5%; for `CCN1CCC2(CCC(Oc3ccc(C(=O)NS(=O)(=O)C4CC4)cc3)C2)CC1` (stereo not given) it is 16.8%.
On the same count and under the same terms, the figure for `CCN1CCC2(CCC(CCOc3cc(F)c(C(=O)NS(=O)(=O)C4CC4)cc3Cl)C2)CC1` (stereo not given) is 24.3%; for `CCN1CCC2(CCC(Oc3ccc(C(=O)NS(=O)(=O)C4CC4)cc3)CC2)CC1` it is 22.9%; for `O=C(NS(=O)(=O)C1CC1)c1ccc(OC2CC3(CCNCC3)C2)cc1` it is 15.4%.
Consider `O=C(NS(=O)(=O)C1CC1)c1cc(Cl)c(OCCC2CCC3(CCN(Cc4ccc(Cl)cc4)CC3)C2)cc1F` (stereo not given), for which the results for the inhibition in [3] and in series [1] were 23.8% and 87.2%, respectively.
On to `O=C(NS(=O)(=O)C1CC1)c1cc(Cl)c(OCCC2CCC3(CCN(Cc4ccco4)CC3)C2)cc1F` (stereo not given), for which the inhibition in [3] was found to be 60%; in series [1] it was 97.6%. In series [2], this compound displayed a concentration for half-maximal inhibition (IC50) of 610 nM.
For `O=C(NS(=O)(=O)C1CC1)c1ccc(OCC2CCC3(CCNCC3)C2)cc1` (stereo not given), the inhibition in [1] was determined as 0.2%.
With `O=C(NS(=O)(=O)C1CC1)c1cc(Cl)c(OCCC2CCC3(CCN(CCCc4ccccc4)CC3)C2)cc1F` (stereo not given), the inhibition in [3] stood at 21.2%; in [1], 72.8%.
On the same counts, the results for `O=C(NS(=O)(=O)C1CC1)c1cc(Cl)c(OCCC2CCC3(CCN(CC4CCCCC4)CC3)C2)cc1F` (stereo not given) are 20.1% and 65.5%.
On the same counts, the results for `O=C(NS(=O)(=O)C1CC1)c1cc(Cl)c(OCCC2CCC3(CCN(CCc4ccccc4)CC3)C2)cc1F` (stereo not given) are 27.5% and 75.1%.
